From PMC4450297, “Screening Active Compounds from Garcinia Species Native to China Reveals Novel Compounds Targeting the STAT/JAK Signaling Pathway” (BioMed Research International, 2015)

Key:
Experiment in all cases: Cell panel screen (CellTiter-Glo)
Format in all cases: cell-based, human
HEC-1-A = HEC-1-A (Uterus), 20 micromolar, 72 hrs
Experimental: (§1) All cells were obtained from the cell bank of the American Type Culture Collection (ATCC) and cultured in the supplier's recommended media supplemented with 10% FBS. The cell panel screen was measured using the CellTiter-Glo assay (Promega, Madison, WI) following a standard protocol. Briefly, cancer cells were seeded in 96-well plates and cultured overnight at 37°C with or without 5% CO2 in an incubator. Each compound was dissolved with limited DMSO and diluted to a certain concentration with culture medium and then added to the corresponding well of the cell plate. The final concentration of compound was 20 μM. The control cells (without treatment) received the same amount of DMSO and were incubated under the same conditions. After 72 h cultivation, 100 μL of the CellTiter-Glo reagent was added directly to each well for 10-minute incubation. The plate was then read on a FlexStation 3 microplate luminometer (Molecular Devices, USA) to monitor the luminescence signal generated by the luciferase-catalyzed reaction of luciferin and ATP. The percent of growth inhibition was calculated using the following formula: (untreated cells − treated cells)/(untreated cells − background without cells) ∗ 100.

SW13 = SW13 (Adrenal gland), 20 micromolar, 72 hrs
Experimental: as §1

MSTO-211-H = MSTO-211-H (Lung), 20 micromolar, 72 hrs
Experimental: as §1

HCC1395 = HCC1395 (Breast), 20 micromolar, 72 hrs
Experimental: as §1

M059J = M059J (Brain), 20 micromolar, 72 hrs
Experimental: as §1

Panc 03.27 = Panc 03.27 (Pancreas), 20 micromolar, 72 hrs
Experimental: as §1

NCI-H1623 = NCI-H1623 (Lung), 20 micromolar, 72 hrs
Experimental: as §1

NCI-H2405 = NCI-H2405 (Lung), 20 micromolar, 72 hrs
Experimental: as §1

HPAF-II = HPAF-II (Pancreas), 20 micromolar, 72 hrs
Experimental: as §1

NCI-H524 = NCI-H524 (Lung), 20 micromolar, 72 hrs
Experimental: as §1

A498 = A498 (listed under Lung), 20 micromolar, 72 hrs
Experimental: as §1

RL95 = RL95 (Uterus), 20 micromolar, 72 hrs
Experimental: as §1

NCI-H1694 = NCI-H1694 (Lung), 20 micromolar, 72 hrs
Experimental: as §1

ChaGo-K-1 = ChaGo-K-1 (Lung), 20 micromolar, 72 hrs
Experimental: as §1

C3A = C3A (Liver), 20 micromolar, 72 hrs
Experimental: as §1

NCI-H28 = NCI-H28 (Lung), 20 micromolar, 72 hrs
Experimental: as §1

BT-549 = BT-549 (Breast), 20 micromolar, 72 hrs
Experimental: as §1

Bel-7402 = Bel-7402 (Liver), 20 micromolar, 72 hrs
Experimental: as §1

ZR-75-30 = ZR-75-30 (Breast), 20 micromolar, 72 hrs
Experimental: as §1

HGC-27 = HGC-27 (Stomach), 20 micromolar, 72 hrs
Experimental: as §1

J82 = J82 (Urinary bladder), 20 micromolar, 72 hrs
Experimental: as §1

NCI-H2347 = NCI-H2347 (Lung), 20 micromolar, 72 hrs
Experimental: as §1

BT-474 = BT-474 (Breast), 20 micromolar, 72 hrs
Experimental: as §1

HCC1937 = HCC1937 (Breast), 20 micromolar, 72 hrs
Experimental: as §1

Colo 205 = settings: Colo 205, 20 micromolar, 72 hrs
Experimental: as §1

HCC1569 = HCC1569 (Breast), 20 micromolar, 72 hrs
Experimental: as §1

CCF-STTG1 = CCF-STTG1 (Brain), 20 micromolar, 72 hrs
Experimental: as §1

HCC1599 = HCC1599 (Breast), 20 micromolar, 72 hrs
Experimental: as §1

T98G = T98G (Brain), 20 micromolar, 72 hrs
Experimental: as §1

T47D = T47D (Breast), 20 micromolar, 72 hrs
Experimental: as §1

CW-2 = CW-2 (Colon), 20 micromolar, 72 hrs
Experimental: as §1

NCI-H1770 = NCI-H1770 (Lung), 20 micromolar, 72 hrs
Experimental: as §1

TCCSUP = TCCSUP (Urinary bladder), 20 micromolar, 72 hrs
Experimental: as §1

C8166 = C8166 (Leukemia), 20 micromolar, 72 hrs
Experimental: as §1

A704 = A704 (Kidney), 20 micromolar, 72 hrs
Experimental: as §1

HT-1197 = HT-1197 (Urinary bladder), 20 micromolar, 72 hrs
Experimental: as §1

CC(C)=CCc1c2c(c(O)c3c1O[C@]14C(=C[C@@H]5C[C@H]1C(C)(C)O[C@@]4(C/C=C(\C)CO)C5=O)C3=O)C=CC(C)(C)O2 [GB18]
Percent Inhibition (HEC-1-A): 99%
Percent Inhibition (SW13): 99%
Percent Inhibition (MSTO-211-H): 99%
Percent Inhibition (HCC1395): 99%
Percent Inhibition (M059J): 99%
Percent Inhibition (Panc 03.27): 99%
Percent Inhibition (NCI-H1623): 99%
Percent Inhibition (NCI-H2405): 99%
Percent Inhibition (HPAF-II): 99%
Percent Inhibition (NCI-H524): 100%
Percent Inhibition (A498): 93%
Percent Inhibition (RL95): 99%
Percent Inhibition (NCI-H1694): 99%
Percent Inhibition (ChaGo-K-1): 99%
Percent Inhibition (C3A): 99%
Percent Inhibition (NCI-H28): 98%
Percent Inhibition (BT-549): 99%
Percent Inhibition (Bel-7402): 99%
Percent Inhibition (ZR-75-30): 99%
Percent Inhibition (HGC-27): 99%
Percent Inhibition (J82): 99%
Percent Inhibition (NCI-H2347): 97%
Percent Inhibition (BT-474): 99%
Percent Inhibition (HCC1937): 98%
Percent Inhibition (Colo 205): 99%
Percent Inhibition (HCC1569): 99%
Percent Inhibition (CCF-STTG1): 99%
Percent Inhibition (HCC1599): 99%
Percent Inhibition (T98G): 99%
Percent Inhibition (T47D): 99%
Percent Inhibition (CW-2): 99%
Percent Inhibition (NCI-H1770): 99%
Percent Inhibition (TCCSUP): 99%
Percent Inhibition (C8166): 99%
Percent Inhibition (A704): 99%
Percent Inhibition (HT-1197): 99%

CCOC1C2C(=O)c3c(O)c4c(c(CC=C(C)C)c3O[C@@]23[C@H]2C[C@@H]1C(=O)[C@]3(C/C=C(/C)C(=O)O)OC2(C)C)OC(C)(CCC=C(C)C)C=C4 (stereo partly drawn) [GB19]
Percent Inhibition (HEC-1-A): 99%
Percent Inhibition (SW13): 99%
Percent Inhibition (MSTO-211-H): 99%
Percent Inhibition (HCC1395): 99%
Percent Inhibition (M059J): 99%
Percent Inhibition (Panc 03.27): 99%
Percent Inhibition (NCI-H1623): 99%
Percent Inhibition (NCI-H2405): 99%
Percent Inhibition (HPAF-II): 98%
Percent Inhibition (NCI-H524): 99%
Percent Inhibition (A498): 99%
Percent Inhibition (RL95): 99%
Percent Inhibition (NCI-H1694): 99%
Percent Inhibition (ChaGo-K-1): 99%
Percent Inhibition (C3A): 99%
Percent Inhibition (NCI-H28): 99%
Percent Inhibition (BT-549): 99%
Percent Inhibition (Bel-7402): 99%
Percent Inhibition (ZR-75-30): 99%
Percent Inhibition (HGC-27): 99%
Percent Inhibition (J82): 99%
Percent Inhibition (NCI-H2347): 98%
Percent Inhibition (BT-474): 99%
Percent Inhibition (HCC1937): 99%
Percent Inhibition (Colo 205): 99%
Percent Inhibition (HCC1569): 99%
Percent Inhibition (CCF-STTG1): 99%
Percent Inhibition (HCC1599): 99%
Percent Inhibition (T98G): 99%
Percent Inhibition (T47D): 99%
Percent Inhibition (CW-2): 99%
Percent Inhibition (NCI-H1770): 99%
Percent Inhibition (TCCSUP): 99%
Percent Inhibition (C8166): 99%
Percent Inhibition (A704): 99%
Percent Inhibition (HT-1197): 99%

CC(C)=CCc1c2c(c(O)c3c1OC14C(=CC5CC1C(C)(C)OC4(CC=C(C)C(=O)O)C5=O)C3=O)C=CC(C)(C)O2 (stereo not drawn) [GB27]
Percent Inhibition (HEC-1-A): 99%
Percent Inhibition (SW13): 99%
Percent Inhibition (MSTO-211-H): 99%
Percent Inhibition (HCC1395): 99%
Percent Inhibition (M059J): 99%
Percent Inhibition (Panc 03.27): 97%
Percent Inhibition (NCI-H1623): 98%
Percent Inhibition (NCI-H2405): 98%
Percent Inhibition (HPAF-II): 98%
Percent Inhibition (NCI-H524): 99%
Percent Inhibition (A498): 88%
Percent Inhibition (RL95): 98%
Percent Inhibition (NCI-H1694): 99%
Percent Inhibition (ChaGo-K-1): 98%
Percent Inhibition (C3A): 98%
Percent Inhibition (NCI-H28): 90%
Percent Inhibition (BT-549): 98%
Percent Inhibition (Bel-7402): 97%
Percent Inhibition (ZR-75-30): 99%
Percent Inhibition (HGC-27): 98%
Percent Inhibition (J82): 98%
Percent Inhibition (NCI-H2347): 93%
Percent Inhibition (BT-474): 98%
Percent Inhibition (HCC1937): 99%
Percent Inhibition (Colo 205): 99%
Percent Inhibition (HCC1569): 99%
Percent Inhibition (CCF-STTG1): 99%
Percent Inhibition (HCC1599): 99%
Percent Inhibition (T98G): 99%
Percent Inhibition (T47D): 99%
Percent Inhibition (CW-2): 99%
Percent Inhibition (NCI-H1770): 99%
Percent Inhibition (TCCSUP): 99%
Percent Inhibition (C8166): 99%
Percent Inhibition (A704): 98%
Percent Inhibition (HT-1197): 95%
